Where only a bound is given, the exact number is not on record here.

These results are taken from patent US20230117470A1, “SUBSTITUTED PYRAZOLE COMPOUNDS AS TOLL RECEPTOR INHIBITORS” (BRISTOL-MYERS SQUIBB COMPANY, priority 2019, published 2023).

What all share (type): cell-based
One assay addresses T1, human TLR9 (Homo sapiens, UniProt Q9NR96).
T1 construct: host or cells: HEK-Blue cells
T1 sequence (Q9NR96 26-1032): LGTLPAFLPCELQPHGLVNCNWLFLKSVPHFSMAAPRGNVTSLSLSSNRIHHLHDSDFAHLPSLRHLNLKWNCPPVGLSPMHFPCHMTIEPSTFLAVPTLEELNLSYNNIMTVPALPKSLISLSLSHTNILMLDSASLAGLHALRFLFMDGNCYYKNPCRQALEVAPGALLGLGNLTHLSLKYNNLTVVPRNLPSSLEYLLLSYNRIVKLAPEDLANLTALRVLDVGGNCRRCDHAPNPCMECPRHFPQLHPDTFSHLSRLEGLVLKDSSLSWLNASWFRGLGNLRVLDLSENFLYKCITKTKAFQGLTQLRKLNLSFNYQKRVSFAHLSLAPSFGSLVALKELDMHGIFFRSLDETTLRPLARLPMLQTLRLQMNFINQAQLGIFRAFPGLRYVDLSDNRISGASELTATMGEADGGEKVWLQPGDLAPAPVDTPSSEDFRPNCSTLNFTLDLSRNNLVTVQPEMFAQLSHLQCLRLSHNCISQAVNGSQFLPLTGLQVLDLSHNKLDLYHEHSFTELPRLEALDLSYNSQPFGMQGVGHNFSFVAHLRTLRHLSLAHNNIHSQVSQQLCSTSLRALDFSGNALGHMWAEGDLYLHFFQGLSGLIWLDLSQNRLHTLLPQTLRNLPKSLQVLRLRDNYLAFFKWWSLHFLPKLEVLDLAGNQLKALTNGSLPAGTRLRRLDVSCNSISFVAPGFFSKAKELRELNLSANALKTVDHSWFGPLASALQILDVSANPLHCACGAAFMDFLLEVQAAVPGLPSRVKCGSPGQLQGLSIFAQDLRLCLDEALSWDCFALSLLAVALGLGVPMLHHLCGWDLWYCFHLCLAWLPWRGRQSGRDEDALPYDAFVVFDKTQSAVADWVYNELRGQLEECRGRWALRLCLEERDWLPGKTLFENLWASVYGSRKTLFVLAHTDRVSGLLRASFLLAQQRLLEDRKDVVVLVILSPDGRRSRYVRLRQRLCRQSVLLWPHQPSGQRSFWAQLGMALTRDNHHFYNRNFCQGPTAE
The experiment in a line: TLR9 inhibition reporter assay (HEK-Blue cells, SEAP reporter, ODN2006 stimulation). Particulars: HEK-Blue cells overexpressing human TLR9, SEAP reporter, ODN2006 5 nM. The gist of the method: (§1)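 Cells were pre-treated 30 min at room temperature with compound (final 0.05 nM–50 μM), then stimulated with gardiquimod 7.5 μM (TLR7), R848 15.9 μM (TLR8) or ODN2006 5 nM (TLR9). SEAP was read after 22 h at 37° C; percent inhibition scaled between agonist+DMSO and known-inhibitor wells.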
(In general: A reporter such as luciferase makes a cellular process visible.)

For the next assay, the target named is T2, human TLR8 (Homo sapiens, UniProt Q9NR97).
T2 construct: host or cells: HEK-Blue cells
T2 sequence (Q9NR97 27-1041): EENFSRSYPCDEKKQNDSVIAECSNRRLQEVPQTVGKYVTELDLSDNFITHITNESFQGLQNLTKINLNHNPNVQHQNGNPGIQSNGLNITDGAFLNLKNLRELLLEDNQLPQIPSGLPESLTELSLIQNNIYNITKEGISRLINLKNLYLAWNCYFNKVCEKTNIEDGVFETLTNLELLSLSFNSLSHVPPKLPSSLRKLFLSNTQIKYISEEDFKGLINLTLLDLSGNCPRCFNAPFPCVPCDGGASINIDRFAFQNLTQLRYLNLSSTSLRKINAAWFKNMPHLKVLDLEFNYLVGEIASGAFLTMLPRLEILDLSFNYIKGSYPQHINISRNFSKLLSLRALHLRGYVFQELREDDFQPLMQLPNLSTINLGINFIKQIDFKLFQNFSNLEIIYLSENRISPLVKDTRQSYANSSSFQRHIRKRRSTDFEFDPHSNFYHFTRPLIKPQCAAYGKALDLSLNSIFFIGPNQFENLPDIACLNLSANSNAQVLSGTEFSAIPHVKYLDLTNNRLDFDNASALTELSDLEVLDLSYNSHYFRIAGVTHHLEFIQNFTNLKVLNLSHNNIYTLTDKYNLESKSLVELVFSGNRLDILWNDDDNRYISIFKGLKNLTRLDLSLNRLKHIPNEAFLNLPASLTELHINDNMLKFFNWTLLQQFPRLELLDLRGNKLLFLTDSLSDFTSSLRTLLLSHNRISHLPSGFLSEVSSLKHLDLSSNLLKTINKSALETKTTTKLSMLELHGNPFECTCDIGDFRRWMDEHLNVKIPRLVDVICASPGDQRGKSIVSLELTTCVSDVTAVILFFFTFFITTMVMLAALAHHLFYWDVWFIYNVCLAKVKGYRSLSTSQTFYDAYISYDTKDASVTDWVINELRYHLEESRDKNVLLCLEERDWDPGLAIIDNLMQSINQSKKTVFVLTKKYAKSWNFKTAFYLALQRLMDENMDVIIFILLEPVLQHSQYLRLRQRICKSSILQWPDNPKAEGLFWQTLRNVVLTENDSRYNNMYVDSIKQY
The experiment in a line: TLR8 inhibition reporter assay (HEK-Blue cells, SEAP reporter, R848 stimulation). Conditions: HEK-Blue cells overexpressing human TLR8, SEAP reporter, R848 15.9 μM. The gist of the method:
as §1

A further assay concerns the target T3, human TLR7 (Homo sapiens, UniProt Q9NYK1).
T3 construct: host or cells: HEK-Blue cells
T3 sequence (Q9NYK1 27-1049): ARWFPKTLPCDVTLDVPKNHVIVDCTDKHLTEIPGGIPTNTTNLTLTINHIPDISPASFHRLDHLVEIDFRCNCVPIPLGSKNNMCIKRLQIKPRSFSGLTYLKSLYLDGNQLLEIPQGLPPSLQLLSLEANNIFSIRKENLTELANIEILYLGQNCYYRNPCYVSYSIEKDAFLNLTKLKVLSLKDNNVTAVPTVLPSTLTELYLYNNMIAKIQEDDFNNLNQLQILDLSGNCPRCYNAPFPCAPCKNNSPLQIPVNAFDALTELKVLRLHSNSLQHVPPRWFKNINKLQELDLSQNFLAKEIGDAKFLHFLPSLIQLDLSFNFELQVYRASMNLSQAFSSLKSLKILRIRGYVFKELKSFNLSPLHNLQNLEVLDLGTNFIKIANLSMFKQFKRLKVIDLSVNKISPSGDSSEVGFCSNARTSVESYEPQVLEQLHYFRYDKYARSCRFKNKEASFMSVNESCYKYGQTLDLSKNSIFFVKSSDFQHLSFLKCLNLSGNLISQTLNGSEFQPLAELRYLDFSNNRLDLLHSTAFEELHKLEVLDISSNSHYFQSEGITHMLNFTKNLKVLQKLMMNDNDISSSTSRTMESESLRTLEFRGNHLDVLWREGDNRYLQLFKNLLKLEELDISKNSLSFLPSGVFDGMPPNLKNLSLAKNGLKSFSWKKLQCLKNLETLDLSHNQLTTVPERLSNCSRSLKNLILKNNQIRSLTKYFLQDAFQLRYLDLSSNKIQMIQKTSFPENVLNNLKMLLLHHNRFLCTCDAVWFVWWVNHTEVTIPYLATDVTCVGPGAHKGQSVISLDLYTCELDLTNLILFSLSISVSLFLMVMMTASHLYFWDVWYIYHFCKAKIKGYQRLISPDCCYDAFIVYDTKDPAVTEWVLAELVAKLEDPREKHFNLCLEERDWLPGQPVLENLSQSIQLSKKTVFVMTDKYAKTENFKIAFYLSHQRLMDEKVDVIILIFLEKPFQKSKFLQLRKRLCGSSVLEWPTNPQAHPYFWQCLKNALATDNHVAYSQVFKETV
The experiment in a line: TLR7 inhibition reporter assay (HEK-Blue cells, SEAP reporter, gardiquimod stimulation). Conditions: HEK-Blue cells overexpressing human TLR7, SEAP reporter, gardiquimod 7.5 μM. The gist of the method: as §1

As usually defined, the IC50 is the midpoint of a concentration-inhibition curve. The low end stands for inhibition by little substance, the high end for a need for much substance. For the compound `CCN1CCOC(CNC(=O)c2n[nH]c(-c3cc(C)c4ncnn4c3)c2C(C)C)C1` (stereo not drawn) [Example 140], the IC50 was 10.4 µM on human TLR9, 0.89 nM against human TLR8 and 0.59 nM on human TLR7.

Consider `CC(=O)N1CCc2nc(-c3n[nH]c(-c4cc(C)c5ncnn5c4)c3C(C)C)sc2C1` [Example 276], for which the figures for the half-inhibitory concentration (IC50) against human TLR9, against human TLR8 and at human TLR7 were > 50 µM, > 3130 nM and 975 nM, respectively.

Take `Cc1cc(-c2[nH]nc(C(=O)NC3CCN(C4COC4)CC3)c2CC(F)(F)F)cn2ncnc12` [Example 200]: the figures for the IC50 against human TLR9, against human TLR8 and against human TLR7 were 10.1 µM, 0.39 nM and 0.92 nM, respectively.

Take `COc1cc(-c2[nH]nc(-c3cnc(C4CCN(CCCF)CC4)cn3)c2C(C)C)cn2ncnc12` [Example 399]: the IC50 was > 50 µM on human TLR9, 132 nM at human TLR8 and 126 nM at human TLR7.

Take `Cc1cc(-c2[nH]nc(C3CCC(N(C)C(=O)C4CN(C(C)C)C4)CC3)c2C(C)C)cn2ncnc12` (single isomer, unassigned) [Example 303]: the IC50 was determined as 26.4 µM at human TLR9, 0.93 nM against human TLR8 and 7.99 nM against human TLR7.

Turning to `CNC(=O)CN1CCc2cc(-c3n[nH]c(-c4cc(C)c5ncnn5c4)c3C(C)C)ccc2C1` [Example 273], the IC50 against human TLR9 is 5.55 µM; against human TLR8 it was 26.5 nM; against human TLR7, 13.7 nM.

As to `COCCN1CCC(c2ccc(-c3n[nH]c(-c4cc(OC)c5ncnn5c4)c3C(C)C)cc2)CC1` [Example 318, 6-(4-isopropyl-3-(4-(1-(2-methoxyethyl)piperidin-4-yl)phenyl)-1H-pyrazol-5-yl)-8-methoxy-[1,2,4]triazolo[1,5-a]pyridine], the IC50 on human TLR9 was determined as 21.6 µM; against human TLR8, 0.83 nM; against human TLR7, 6.23 nM.

`COc1cc(-c2[nH]nc(C(=O)NC3CCNCC3)c2CC(F)(F)F)cn2ncnc12` [Example 190, 5-(8-methoxy-[1,2,4]triazolo[1,5-a]pyridin-6-yl)-N-(piperidin-4-yl)-4-(2,2,2-trifluoroethyl)-1H-pyrazole-3-carboxamide]: the figures for the IC50 on human TLR9, on human TLR8 and against human TLR7 were 8.35 µM, 0.58 nM and 0.8 nM, respectively.

For the compound `CCN(CCC#N)C(=O)c1n[nH]c(-c2cc(C)c3ncnn3c2)c1C(C)C` [Example 20], the IC50 on human TLR9 is 16.1 µM; against human TLR8 it was 8.06 nM; at human TLR7, 3.69 nM.

In the case of `COc1cc(-c2[nH]nc(-c3ccc(C4CCN(C(C)C)CC4)cn3)c2C(C)C)cn2ncnc12` [Example 350], the values for the concentration for half-maximal inhibition (IC50) on human TLR9, on human TLR8 and against human TLR7 were 21.7 µM, 0.12 nM and 8.11 nM, respectively.

Consider `Cc1cc(-c2[nH]nc(C(=O)N[C@H]3CC[C@@H](NC4COC4)CC3)c2C(C)C)cn2ncnc12` [Example 86], for which the IC50 against human TLR9 was determined as 6.42 µM; against human TLR8, 0.7 nM; at human TLR7, 1.34 nM.

Regarding `Cc1cc(-c2[nH]nc(C(=O)N[C@H]3CCCN(CC4=NC(C)N=N4)C3)c2C(C)C)cn2ncnc12` (stereo partly drawn) [Example 165], the IC50 was 22.8 µM against human TLR9, 14.4 nM against human TLR8 and 1.61 nM against human TLR7.

For `Cc1cc(-c2[nH]nc(C(=O)N[C@H]3CC[C@@H](NCC4CCOC4)CC3)c2C(C)C)cn2ncnc12` (stereo partly drawn) [Example 87], the IC50 at human TLR9 was found to be 7.79 µM; against human TLR8, 11.8 nM; against human TLR7, 1.73 nM.

As for `CCN1CCC(c2cnc(-c3n[nH]c(-c4cc(OC)c5ncnn5c4)c3C(C)C)cn2)CC1` [Example 382], the values for the IC50 at human TLR9, at human TLR8 and on human TLR7 were 9.86 µM, 2.33 nM and 2.32 nM, respectively.

Turning to `Cc1cc(-c2[nH]nc(C(=O)N[C@H]3CC[C@@H](NC4CCOCC4)CC3)c2C(C)C)cn2ncnc12` [Example 98], the IC50 against human TLR9 worked out at 2.98 µM; on human TLR8, 1.37 nM; against human TLR7, 0.12 nM.

On to `Cc1cc(-c2[nH]nc(C(=O)NCCN3CCOCC3)c2C(C)C)cn2ncnc12` [Example 3], for which the half-inhibitory concentration (IC50) against human TLR9 worked out at 18.5 µM; against human TLR8, 3.05 nM; at human TLR7 it was 1.84 nM.
